ChEMBL document CHEMBL1240508, “Design and synthesis of Hsp90 inhibitors: exploring the SAR of Sansalvamide A derivatives” (Bioorg Med Chem, 2010)
≈ marks a conversion by molar mass, not a printed value. Calls of active or inactive are those of the source. The calls are words filed in the database; no cut-off is given here. Non-standard residues stand in square brackets, D forms with d. Residues, ends and D or L forms follow the SMILES beside them. *: point of attachment. dNMeF = CN[C@H](Cc1ccccc1)C(=O)O; Cha = N[C@@H](CC1CCCCC1)C(=O)O; NMeK = CN[C@@H](CCCCN)C(=O)O; Boc = CC(C)(C)OC(=O)*; Bn = c1ccc(C*)cc1

How the values were obtained:
[1] = system: HCT-116; assay: Cytotoxicity against human HCT116 cells at 10 uM after 72 hrs by [3H]thymidine incorporation assay; conditions: read-out: GI
[2] = system: HCT-116; assay: Cytotoxicity against human HCT116 cells after 72 hrs by [3H]thymidine incorporation assay
[3] = Inhibition of Hsp90 assessed as Her2 interaction at up to 11 uM by Western blotting
[4] = Inhibition of Hsp90 assessed as IP6K2 interaction at up to 11 uM by Western blotting
[5] = Solubility of the compound; assay type: physicochemical
[6] = Efflux ratio of permeability in human Caco-2 cells; assay type: ADME, cell-based
[7] = Chemical stability of the compound assessed as half life; assay type: physicochemical

Row | SMILES | inhibition of growth at 10 µM [1] [%] | further results
1 | CC(C)C[C@@H]1NC(=O)[C@@H]([C@@H](OCc2ccccc2)c2ccccc2)NC(=O)[C@@H](Cc2ccccc2)NC(=O)[C@@H](CC(C)C)NC(=O)[C@H](C(C)C)N(C)C1=O (mixture of isomers) | 63 | IC50 [2]: 8.9 µM
2 | CC(C)C[C@@H]1NC(=O)[C@H](Cc2ccccc2)NC(=O)[C@@H](CC(C)C)NC(=O)[C@@H](CC(C)C)NC(=O)[C@H](C(C)C)NC1=O | 20 | –
3 | CC(C)[C@H]1NC(=O)[C@@H](Cc2ccccc2)N(C)C(=O)[C@H](Cc2ccccc2)NC(=O)[C@H](CO)NC(=O)[C@H](CC2CCCCC2)NC1=O | 18 | –
4 | CC(C)C[C@@H]1NC(=O)[C@H](Cc2ccccc2)NC(=O)[C@@H](CC(C)C)N(C)C(=O)[C@H](CC(C)C)NC(=O)[C@H](C(C)C)NC1=O | 32 | –
5 | CC(C)C[C@@H]1NC(=O)[C@H](CC(C)C)NC(=O)[C@H](C(C)C)NC(=O)[C@@H](Cc2ccccc2)N(C)C(=O)[C@H](Cc2ccccc2)NC1=O | 99 | –
6 | CC(C)C[C@@H]1NC(=O)[C@H](Cc2ccccc2)NC(=O)[C@@H](Cc2ccccc2)NC(=O)[C@@H](CC(C)C)NC(=O)[C@H](C(C)C)NC1=O | 28 | –
7 | CC(C)C[C@@H]1NC(=O)[C@H](C(C)C)NC(=O)[C@@H](CC(C)C)NC(=O)[C@@H](Cc2ccccc2)NC(=O)[C@H](CC(C)C)N(C)C1=O | 15 | –
8 | CC(C)C[C@@H]1NC(=O)[C@H](Cc2ccccc2)NC(=O)[C@H](CCCCN)NC(=O)[C@H](CC(C)C)NC(=O)[C@@H](C(C)C)NC1=O (cyclo(FL[dV]LK)) | 0 | –
9 | CC(C)C[C@@H]1NC(=O)[C@H](CC(C)C)NC(=O)[C@H](C(C)C)NC(=O)[C@H](CC(C)C)NC(=O)[C@H](Cc2ccccc2)NC1=O | – | IC50 [2]: 19.7 µM
10 | CC(C)C[C@@H]1NC(=O)[C@@H](CC(C)C)NC(=O)[C@@H](C(C)C)NC(=O)[C@H](CC(C)C)N(C)C(=O)[C@H](Cc2ccccc2)NC1=O | 30 | –
11 | CC(C)C[C@@H]1NC(=O)[C@@H](Cc2ccccc2)NC(=O)[C@@H](Cc2ccccc2)NC(=O)[C@@H](CC(C)C)N(C)C(=O)[C@H](C(C)C)N(C)C1=O | 15 | –
12 | CC(C)C[C@@H]1NC(=O)[C@@H](C(C)C)NC(=O)[C@@H](CC(C)C)NC(=O)[C@H](Cc2ccccc2)N(C)C(=O)[C@H](CC(C)C)NC1=O | 30 | –
13 | CC(C)C[C@@H]1NC(=O)[C@H](Cc2ccccc2)NC(=O)[C@@H](Cc2ccccc2)NC(=O)[C@@H](CCCCNC(=O)OCc2ccccc2)NC(=O)[C@H](C(C)C)N(C)C1=O | 36 | –
14 | CC(C)[C@H]1NC(=O)[C@@H](Cc2ccccc2)N(C)C(=O)[C@H](Cc2ccccc2)NC(=O)[C@H](COCc2ccccc2)NC(=O)[C@H](CC2CCCCC2)NC1=O (cyclo([Cha]S(Bn)F[dNMeF][dV])) | 93 | inhibition [3]: Active; inhibition [4]: Active; solubility [5]: < 5 µM; IC50 [2]: ≤ 1.9 µM
15 | CC(C)C[C@@H]1NC(=O)[C@H](Cc2ccccc2)NC(=O)[C@H](CC(C)C)N(C)C(=O)[C@H](CC(C)C)NC(=O)[C@H](C(C)C)NC1=O | 35 | –
16 | CC(C)C[C@@H]1NC(=O)[C@H]([C@@H](OCc2ccccc2)c2ccccc2)NC(=O)[C@@H](Cc2ccccc2)NC(=O)[C@@H](CC(C)C)NC(=O)[C@H](C(C)C)N(C)C1=O | 64 | IC50 [2]: 5.8 µM
17 | CC(C)C[C@@H]1NC(=O)[C@@H](Cc2ccccc2)NC(=O)[C@@H](CC(C)C)NC(=O)[C@H](CC(C)C)N(C)C(=O)[C@H](C(C)C)NC1=O | 18 | –

Row | SMILES | inhibition of growth at 10 µM [1] [%] | further results
18 | CC(C)C[C@@H]1NC(=O)[C@H](Cc2ccccc2)NC(=O)[C@H](CCCCN)NC(=O)[C@H](CC(C)C)NC(=O)[C@H](C(C)C)NC1=O (cyclo(FLVLK)) | 0 | –
19 | CC(C)C[C@@H]1NC(=O)[C@H](CC(C)C)N(C)C(=O)[C@H](C(C)C)NC(=O)[C@@H](CC(C)C)NC(=O)[C@H](Cc2ccccc2)NC1=O | 3 | –
20 | CC(C)C[C@@H]1NC(=O)[C@H](CC(C)C)NC(=O)[C@H](C(C)C)NC(=O)[C@@H](Cc2ccccc2)NC(=O)[C@H](Cc2ccccc2)NC1=O | 21 | –
21 | CC(C)C[C@@H]1NC(=O)[C@H](CC(C)C)NC(=O)[C@H](C(C)C)NC(=O)[C@H](CC(C)C)NC(=O)[C@@H](Cc2ccccc2)NC1=O | 26 | –
22 | CC(C)C[C@@H]1NC(=O)[C@H](Cc2ccccc2)NC(=O)[C@H](CCCCN)N(C)C(=O)[C@H](CC(C)C)NC(=O)[C@H](C(C)C)NC1=O (cyclo(FLVL[NMeK])) | 0 | –
23 | CC(C)C[C@@H]1NC(=O)[C@H](C(C)C)NC(=O)[C@@H](Cc2ccccc2)N(C)C(=O)[C@H](Cc2ccccc2)NC(=O)[C@H](CCCCN)NC1=O (cyclo(F[dNMeF]VLK)) | 0 | –
24 | CC(C)C[C@@H]1NC(=O)[C@H](Cc2ccccc2)NC(=O)[C@H](CCCCNC(=O)OC(C)(C)C)NC(=O)[C@H](CC(C)C)NC(=O)[C@H](C(C)C)NC1=O | 0 | –
25 | CC(C)C[C@@H]1NC(=O)[C@H](C(C)C)NC(=O)[C@@H](Cc2ccccc2)N(C)C(=O)[C@H](Cc2ccccc2)NC(=O)[C@@H](CC(C)C)N(C)C1=O | 47 | –
26 | CC(C)[C@H]1NC(=O)[C@@H](Cc2ccccc2)NC(=O)[C@H](Cc2ccccc2)NC(=O)[C@H](COCc2ccccc2)NC(=O)[C@H](CC2CCCCC2)NC1=O (cyclo([Cha]S(Bn)F[dF][dV])) | 10 | inhibition [3]: inactive; inhibition [4]: inactive
27 | CC(C)C[C@@H]1NC(=O)[C@H](CC(C)C)NC(=O)[C@H](C(C)C)NC(=O)[C@@H](CC(C)C)NC(=O)[C@@H](Cc2ccccc2)NC1=O | 14 | –
28 | CC(C)C[C@@H]1NC(=O)[C@@H]([C@H](OCc2ccccc2)c2ccccc2)NC(=O)[C@@H](Cc2ccccc2)NC(=O)[C@@H](CC(C)C)NC(=O)[C@H](C(C)C)N(C)C1=O | 94 | efflux ratio [6]: 3; half-life [7]: > 2.87 h; solubility [5]: 7 µM (≈ 5.18 µg/mL); IC50 [2]: 3.2 µM
29 | CC(C)C[C@@H]1NC(=O)[C@H](CC(C)C)NC(=O)[C@@H](C(C)C)NC(=O)[C@@H](Cc2ccccc2)NC(=O)[C@H](Cc2ccccc2)NC1=O | 4 | –
30 | CC(C)C[C@@H]1NC(=O)[C@H](CC(C)C)NC(=O)[C@H](C(C)C)NC(=O)[C@H](CC(C)C)NC(=O)[C@@H](Cc2ccc(O)cc2)NC1=O | 50 | –
31 | CC(C)C[C@@H]1NC(=O)[C@H](CC(C)C)NC(=O)[C@@H](C(C)C)NC(=O)[C@H](CC(C)C)NC(=O)[C@H](Cc2ccccc2)NC1=O | 8 | –
32 | CC(C)C[C@@H]1NC(=O)[C@H](CC(C)C)NC(=O)[C@H](C(C)C)NC(=O)[C@H](CC(C)C)NC(=O)[C@@H](Cc2c[nH]c3ccccc23)NC1=O | 30 | –
33 | CC(C)C[C@@H]1NC(=O)[C@H](Cc2ccccc2)NC(=O)[C@H](CCCCNC(=O)OC(C)(C)C)N(C)C(=O)[C@H](CC(C)C)NC(=O)[C@H](C(C)C)NC1=O (cyclo(FLVL[NMeK](Boc))) | 58 | –
34 | CC(C)C[C@@H]1NC(=O)[C@H](Cc2ccccc2)NC(=O)[C@H](CCCCNC(=O)OC(C)(C)C)NC(=O)[C@H](CC(C)C)NC(=O)[C@@H](C(C)C)NC1=O | 9 | –
